Measurements as given in patent US20260007684A1, “AMIDE DERIVATIVES FOR INHIBITING NLRP3 AND USES THEREOF” (Ventus Therapeutics U.S., Inc., priority 2023, published 2026).
pIC50: −log10 of the molar value. Like-named read-outs stand apart in the source and are kept apart here.

How the values were obtained:
human NLRP3 [1] = target: T1, human NLRP3 (Homo sapiens (Human), UniProt Q96P20); assay: Human Whole Blood (hWB) NLRP3 Assay (LPS/ATP, IL-1β); assay type: cell-based
human NLRP3 [2] = target: T1, human NLRP3; assay: Scintillation Proximity (SPA) NLRP3 Assay: displacement of 3H-MCC950; assay type: binding; conditions: for pIC50: read-out: SPA IC50
human NLRP3 [3] = target: T1, human NLRP3; assay: Human PBMC NLRP3 Assay (LPS priming, ATP stimulation, cytokine measurement); assay type: cell-based
mouse NLRP3 = mouse NLRP3 (Mus musculus (Mouse), UniProt Q8R4B8); assay: Mouse Whole Blood (mWB) NLRP3 Assay (LPS/ATP, IL-1b); assay type: cell-based
mouse NLRP3, sequence (Q8R4B8 whole entry): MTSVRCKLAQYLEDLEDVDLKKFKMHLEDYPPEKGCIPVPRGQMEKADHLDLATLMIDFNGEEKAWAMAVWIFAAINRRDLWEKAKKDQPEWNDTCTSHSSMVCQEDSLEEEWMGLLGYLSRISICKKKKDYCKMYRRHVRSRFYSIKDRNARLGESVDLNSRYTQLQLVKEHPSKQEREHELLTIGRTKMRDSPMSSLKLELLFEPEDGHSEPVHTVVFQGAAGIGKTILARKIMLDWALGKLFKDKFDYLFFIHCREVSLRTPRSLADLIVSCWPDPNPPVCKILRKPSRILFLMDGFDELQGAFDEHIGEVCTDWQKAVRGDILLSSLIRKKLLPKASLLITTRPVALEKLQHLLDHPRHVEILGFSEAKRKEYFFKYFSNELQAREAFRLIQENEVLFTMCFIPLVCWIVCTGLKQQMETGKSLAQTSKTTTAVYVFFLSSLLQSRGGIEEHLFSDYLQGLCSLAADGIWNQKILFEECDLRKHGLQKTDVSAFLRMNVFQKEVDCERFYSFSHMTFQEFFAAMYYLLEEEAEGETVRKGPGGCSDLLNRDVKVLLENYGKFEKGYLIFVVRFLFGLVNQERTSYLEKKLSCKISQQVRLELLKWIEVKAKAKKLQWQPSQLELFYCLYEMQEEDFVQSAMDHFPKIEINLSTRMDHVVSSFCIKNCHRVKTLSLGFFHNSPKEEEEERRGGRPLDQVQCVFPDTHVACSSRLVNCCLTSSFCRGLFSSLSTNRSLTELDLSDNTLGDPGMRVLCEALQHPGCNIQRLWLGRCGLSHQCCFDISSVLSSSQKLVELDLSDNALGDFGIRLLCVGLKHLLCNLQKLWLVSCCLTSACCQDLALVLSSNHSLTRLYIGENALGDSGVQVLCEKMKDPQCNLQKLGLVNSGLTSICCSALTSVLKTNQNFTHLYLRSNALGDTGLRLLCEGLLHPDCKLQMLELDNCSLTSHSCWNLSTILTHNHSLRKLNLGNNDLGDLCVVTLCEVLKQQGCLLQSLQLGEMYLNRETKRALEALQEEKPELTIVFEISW
Protocol: Reagents: The following reagents were used: blood collection tubes (Heparin); U-bottom 96-well tissue culture (Falcon 353077); HBSS for LPS, ATP and compound dilutions (Gibco 24020-117); and LPS, E. coli serotype 026:B6 (Sigma L-2654).
Mouse IL-1b MSD assay: Blood was drawn from female CD1 mice (9 to 10 weeks) by cardiac puncture. Blood was plated (135 μL) per well in 96-well U-bottom plates. 7.5 μL of 20×LPS (20 μg/mL, final concentration of 1 μg/mL) was added and mixed by gentle pipetting, and the mixture was incubated in a TC incubator for five hours. 7.5 μL of 20× compound or vehicle per well was added and mixed by gentle pipetting. Compounds were diluted 1/50 in HBSS to prepare a 20× dilution curve in […].
The mixture was incubated for 30 minutes in a TC incubator with shaking (450 rpm). 5 μl of 31×ATP (155 mM, final concentration of 5 mM) was added and mixed by gentle pipetting. The mixture was incubated in a TC incubator for 30 minutes with shaking (450 rpm). The plate was centrifuged for 10 minutes at 800×g and −70 μL of plasma was removed. Plasma was frozen if required. Mouse IL-1b was analyzed with IL-1b MSD assay (K152TUK).
Compounds were added 30 minutes before priming the cells with LPS when TNFα was required to be quantified in the cytokine panel to confirm selectivity.

[4] = human whole blood, LPS/ATP, IL-1β, read-out: hWB IC50
[5] = human PBMC, LPS priming, ATP stimulation, read-out: PBMC IC50
[6] = mouse whole blood, LPS/ATP, IL-1b
[7] = hWB IC50, human whole blood, LPS/ATP, IL-1β
[8] = PBMC IC50, human PBMC, LPS priming, ATP stimulation
[9] = relative to Comparative Example A*

T1 sequence (Q96P20 whole entry): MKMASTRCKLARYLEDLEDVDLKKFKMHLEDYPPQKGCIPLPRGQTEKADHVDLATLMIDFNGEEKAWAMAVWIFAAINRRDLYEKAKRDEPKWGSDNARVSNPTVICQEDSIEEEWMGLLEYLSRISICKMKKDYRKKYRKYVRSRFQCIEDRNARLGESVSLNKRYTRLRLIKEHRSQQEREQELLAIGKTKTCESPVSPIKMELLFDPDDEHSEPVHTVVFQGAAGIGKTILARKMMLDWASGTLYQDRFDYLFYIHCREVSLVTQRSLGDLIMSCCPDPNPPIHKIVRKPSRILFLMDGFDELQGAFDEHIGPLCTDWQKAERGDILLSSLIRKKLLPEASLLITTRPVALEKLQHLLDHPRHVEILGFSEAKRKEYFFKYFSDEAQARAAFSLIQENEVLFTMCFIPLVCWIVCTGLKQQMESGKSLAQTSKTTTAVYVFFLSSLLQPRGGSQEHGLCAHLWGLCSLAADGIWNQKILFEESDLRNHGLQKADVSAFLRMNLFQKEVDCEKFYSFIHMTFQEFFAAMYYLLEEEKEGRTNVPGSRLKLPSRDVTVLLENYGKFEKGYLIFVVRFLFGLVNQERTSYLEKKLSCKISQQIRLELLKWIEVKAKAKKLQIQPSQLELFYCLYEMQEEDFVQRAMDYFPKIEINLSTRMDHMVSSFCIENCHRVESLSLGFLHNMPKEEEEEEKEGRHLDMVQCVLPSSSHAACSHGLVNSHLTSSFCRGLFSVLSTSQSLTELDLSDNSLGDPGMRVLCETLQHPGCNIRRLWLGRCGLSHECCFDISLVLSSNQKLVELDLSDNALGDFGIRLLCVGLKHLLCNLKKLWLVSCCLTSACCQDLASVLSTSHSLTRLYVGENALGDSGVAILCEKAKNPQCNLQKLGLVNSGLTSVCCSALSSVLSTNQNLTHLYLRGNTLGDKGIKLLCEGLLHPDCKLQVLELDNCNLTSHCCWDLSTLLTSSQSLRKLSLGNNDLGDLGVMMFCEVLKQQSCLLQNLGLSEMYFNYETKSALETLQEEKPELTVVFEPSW

Structure (SMILES)	pIC50 (human NLRP3 [1]; [4])	pIC50 (human NLRP3 [2]; displacement of 3H-MCC950)	pIC50 (human NLRP3 [3]; [5])	pIC50 (mouse NLRP3; [6])	pIC50 (human NLRP3 [1]; read-out: hWB IC50)	pIC50 (human NLRP3 [2])	pIC50 (human NLRP3 [3]; read-out: PBMC IC50)	pIC50 (mouse NLRP3)	also measured
C[C@@H]1CCN(c2nnn[nH]2)C[C@H](NC(=O)C2(c3ccc(Cl)cc3)CC2)C1 (single isomer, unassigned) [12A*, 1-(4-chlorophenyl)-N-(5-methyl-1-(1H-tetrazol-5-yl)azepan-3-yl)cyclopropane-1-carboxamide]	> 6.00	> 6.00	> 8.00	> 6.00					
O=C(N[C@H]1CN(c2nnn[nH]2)CCC(F)(F)C1)C1(c2ccc(Cl)cc2)CC1 (single isomer, unassigned) [53A*]	> 6.00	> 6.00		> 6.00					
C[C@H]1C[C@@H](NC(=O)C2(c3ccc(Cl)cc3)CC2)CN(c2nnn[nH]2)C1 [Compound 46A, 1-(4-chlorophenyl)-N-((3R,5S)-5-methyl-1-(1H-tetrazol-5-yl)piperidin-3-yl)cyclopropane-1-carboxamide]	5.52 to 5.70	> 6.00	7.00 to 8.00	> 6.00	5.60	6.07	7.00	6.77	fold increase in potency as measured by hWB IC50 (human NLRP3 [1]; relative to Compound 10A): 3 fold; fold increase in binding activity (SPA IC50) (human NLRP3 [2]; relative to Compound 10A): 11 fold; fold increase in potency as measured by PBMC IC50 (human NLRP3 [3]; relative to Compound 10A): 21 fold; fold increase in potency as measured by mWB IC50 (mouse NLRP3; relative to Compound 10A): 11 fold
C[C@H]1C[C@@H](NC(=O)C2(c3c(O)cc(C4CC4)cc3C(F)F)CC2)CN(c2nnn[nH]2)C1 (single isomer, unassigned) [97A*]		> 6.00	6.30 to 7.00	> 6.00					
O=C(N[C@@H]1CCCN(c2nnn[nH]2)C1)C1(c2ccc(Br)cc2)CC1 [Compound 39A, 1-(4-bromophenyl)-N-[(3R)-1-(1H-tetrazol-5-yl)-3-piperidyl]cyclopropanecarboxamide]	5.70 to 6.00	5.00 to 6.00		5.70 to 6.00					
C[C@H]1C[C@@H](NC(=O)C2(c3ccc(C(F)(F)F)cc3O)CC2)CN(c2nnn[nH]2)C1 [Compound 16A, 1-(2-hydroxy-4-(trifluoromethyl)phenyl)-N-((3R,5S)-5-methyl-1-(1H-tetrazol-5-yl)piperidin-3-yl)cyclopropane-1-carboxamide]	> 6.00	> 6.00	> 8.00	> 6.00	7.21	7.39	8.37	7.09	
O=C(N[C@@H]1C[C@H](C(F)(F)F)CN(c2nnn[nH]2)C1)C1(c2ccc(Cl)cc2)CC1 [Compound 45A, 1-(4-chlorophenyl)-N-[(3R,5S)-1-(1H-tetrazol-5-yl)-5-(trifluoromethyl)-3-piperidyl]cyclopropanecarboxamide]	5.52 to 5.70	5.00 to 6.00		> 6.00					
O=C(Nc1cccc(-c2nnn[nH]2)c1)C1(c2ccc(Cl)cc2)CC1 [Comparative Example B1, N-(3-(1H-tetrazol-5-yl)phenyl)-1-(4-chlorophenyl)cyclopropane-1-carboxamide, reference compound]						5.10	6.32	< 4.30	
C[C@@H]1C[C@@H](NC(=O)C2(c3ccc(OC(F)F)cc3)CC2)[C@H]2CC[C@@H]1N2c1nnn[nH]1 (single isomer, unassigned) [35A*]		> 6.00		> 6.00					pIC50 (human NLRP3 [1]; [7]): > 6.00; pIC50 (human NLRP3 [3]; [8]): > 8.00
C[C@@H]1C[C@@H](NC(=O)C2(c3ccc(C(F)(F)F)cc3)CC2)[C@H]2CC[C@@H]1N2c1nnn[nH]1 [79A*, N-((1R,2R,4R,5S)-4-methyl-8-(1H-tetrazol-5-yl)-8-azabicyclo[3.2.1]octan-2-yl)-1-(4-(trifluoromethyl)phenyl)cyclopropane-1-carboxamide]		> 6.00		> 6.00					pIC50 (human NLRP3 [1]; [7]): > 6.00; pIC50 (human NLRP3 [3]; [8]): > 8.00
O=C(N[C@@H]1CCCN(c2nnn[nH]2)C1)C1(c2ccc(Cl)cc2)CC1 [Compound 10A, (R)-N-(1-(1H-tetrazol-5-yl)piperidin-3-yl)-1-(4-chlorophenyl)cyclopropane-1-carboxamide]	< 5.52	5.00 to 6.00	< 6.30	5.70 to 6.00	5.14	5.02	5.68	5.72	fold increase in potency as measured by hWB IC50 (human NLRP3 [1]; [9]): > 6 fold; fold increase in binding activity (SPA IC50) (human NLRP3 [2]; [9]): > 40 fold; fold increase in potency as measured by PBMC IC50 (human NLRP3 [3]; relative to Comparative Example F): 4 fold; fold increase in potency as measured by PBMC IC50 (human NLRP3 [3]; relative to Comparative Example G): > 47 fold; fold increase in potency as measured by PBMC IC50 (human NLRP3 [3]; relative to Comparative Example H): 5 fold; fold increase in potency as measured by PBMC IC50 (human NLRP3 [3]; relative to Comparative Example J1): > 47 fold; fold increase in potency as measured by PBMC IC50 (human NLRP3 [3]; relative to Comparative Example J2): > 47 fold; fold increase in potency as measured by mWB IC50 (mouse NLRP3; relative to Comparative Example B1): 26 fold
C[C@H]1C[C@@H](NC(=O)C2(c3ccc(Cl)cc3O)CC2)CN(c2nnn[nH]2)C1 [Compound 47A, 1-(4-chloro-2-hydroxyphenyl)-N-((3R,5S)-5-methyl-1-(1H-tetrazol-5-yl)piperidin-3-yl)cyclopropane-1-carboxamide]	> 6.00	> 6.00	> 8.00	> 6.00	6.66	7.32	8.17	7.46	fold increase in potency as measured by hWB IC50 (human NLRP3 [1]; relative to Compound 46A): > 11 fold; fold increase in binding activity (SPA IC50) (human NLRP3 [2]; relative to Compound 46A): 18 fold; fold increase in potency as measured by PBMC IC50 (human NLRP3 [3]; relative to Compound 46A): 15 fold; fold increase in potency as measured by mWB IC50 (mouse NLRP3; relative to Compound 46A): 4.9 fold
O=C(N[C@@H]1CC[C@H]2CC[C@@H]1N2c1nnn[nH]1)C1(c2ccc(C(F)(F)F)cc2O)CC1 (single isomer, unassigned) [34C*]		> 6.00		> 6.00					pIC50 (human NLRP3 [1]; [7]): > 6.00; pIC50 (human NLRP3 [3]; [8]): 7.00 to 8.00
O=C(N[C@@H]1CCCCN(c2nnn[nH]2)C1)C1(c2ccc(Cl)cc2)CC1 [Compound 51A, 1-(4-chlorophenyl)-N-[(3R)-1-(1H-tetrazol-5-yl)azepan-3-yl]cyclopropanecarboxamide]	> 6.00	5.00 to 6.00	7.00 to 8.00	5.70 to 6.00	6.14	5.66	7.36	5.74	fold increase in potency as measured by hWB IC50 (human NLRP3 [1]; relative to Compound 10A): > 10 fold; fold increase in binding activity (SPA IC50) (human NLRP3 [2]; relative to Compound 10A): > 4 fold; fold increase in potency as measured by PBMC IC50 (human NLRP3 [3]; relative to Compound 10A): 48 fold
C[C@H]1CCN(c2nnn[nH]2)C[C@@H]1NC(=O)C1(c2ccc(Cl)cc2)CC1 [Compound 49C, 1-(4-chlorophenyl)-N-[(3R,4S)-4-methyl-1-(1H-tetrazol-5-yl)-3-piperidyl]cyclopropanecarboxamide]	5.52 to 5.70	5.00 to 6.00	6.30 to 7.00	5.52 to 5.70					
O=C(N[C@@H]1CCCN(c2nnn[nH]2)C1)C1(c2ccc(Cl)cc2O)CC1 [Compound 15A, (R)-N-(1-(1H-tetrazol-5-yl)piperidin-3-yl)-1-(4-chloro-2-hydroxyphenyl)cyclopropane-1-carboxamide]	> 6.00	5.00 to 6.00	6.30 to 7.00		6.27	5.74	6.70		fold increase in potency as measured by hWB IC50 (human NLRP3 [1]; relative to Compound 10A): > 13 fold; fold increase in binding activity (SPA IC50) (human NLRP3 [2]; relative to Compound 10A): > 5 fold; fold increase in potency as measured by PBMC IC50 (human NLRP3 [3]; relative to Compound 10A): > 10 fold
C[C@@H]1CCN(c2nnn[nH]2)C[C@H](NC(=O)C2(c3ccc(Cl)cc3O)CC2)C1 (single isomer, unassigned) [60A*]	> 6.00	> 6.00	> 8.00						
